Target: SUV420H1 enzyme (Homo sapiens, UniProt Q4FZB7)
Assay: TR-FRET SAH SUV420H1 enzyme inhibition assay
Type: biochemical
Conditions: Histone Peptide H4(8-30)me1 and SAM, overnight at room temp, TR-FRET detection of SAH, read-out: TR-FRET SAH_SUV420H1 IC50
Outline: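 SUV420H1 (90 nM) preincubated 30 min with compound (3-fold dilutions, 50 to 0.00075 μM), then H4(8-30)me1 peptide 5 nM and SAM 4 nM added, overnight at room temp. SAH product detected by TR-FRET with Tb anti-SAH antibody and Oregon Green-SAH in RIPA buffer, 4 h; IC50 from Hill fit, asymptotes fixed 0-100%.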

SUV420H1 enzyme, sequence (Q4FZB7 whole entry): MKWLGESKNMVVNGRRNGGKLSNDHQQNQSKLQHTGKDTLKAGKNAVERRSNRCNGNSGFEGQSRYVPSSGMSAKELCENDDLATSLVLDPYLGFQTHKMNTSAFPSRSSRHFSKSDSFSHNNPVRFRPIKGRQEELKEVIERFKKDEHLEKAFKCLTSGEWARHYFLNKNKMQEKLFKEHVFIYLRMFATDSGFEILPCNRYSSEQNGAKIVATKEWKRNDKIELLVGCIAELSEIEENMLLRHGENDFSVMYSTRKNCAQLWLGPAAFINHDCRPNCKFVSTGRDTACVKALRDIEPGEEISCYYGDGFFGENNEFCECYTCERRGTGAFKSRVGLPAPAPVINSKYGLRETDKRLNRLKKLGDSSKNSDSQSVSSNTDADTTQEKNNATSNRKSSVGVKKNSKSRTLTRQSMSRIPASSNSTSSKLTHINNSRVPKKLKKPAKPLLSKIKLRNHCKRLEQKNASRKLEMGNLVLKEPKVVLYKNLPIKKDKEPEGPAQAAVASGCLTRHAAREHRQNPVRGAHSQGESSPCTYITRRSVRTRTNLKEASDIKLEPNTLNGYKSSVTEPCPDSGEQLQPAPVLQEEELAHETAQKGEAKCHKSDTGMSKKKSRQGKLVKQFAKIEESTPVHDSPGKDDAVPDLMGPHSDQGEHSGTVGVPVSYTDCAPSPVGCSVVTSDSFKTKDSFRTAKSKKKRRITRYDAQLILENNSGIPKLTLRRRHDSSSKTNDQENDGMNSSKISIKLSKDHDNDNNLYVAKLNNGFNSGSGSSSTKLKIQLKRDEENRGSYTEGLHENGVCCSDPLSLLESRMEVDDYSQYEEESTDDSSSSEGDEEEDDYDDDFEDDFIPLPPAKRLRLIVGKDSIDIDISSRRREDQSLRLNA

Compound	IC50 [nM]
Cc1oncc1C(=O)NCc1cc2cc(Cl)cc(Cn3cnc4c(N)ncnc43)c2[nH]1 [Example 149, N-({7-[(6-amino-9H-purin-9-yl)methyl]-5-chloro-1H-indol-2-yl}methyl)-5-methyl-1,2-oxazole-4-carboxamide]	2040
Nc1ncnc2c1ncn2Cc1cc(Cl)cc2cc(CNC(=O)c3ccccc3N3CCCCC3)[nH]c12 [Example 322, N-({7-[(6-amino-9H-purin-9-yl)methyl]-5-chloro-1H-indol-2-yl}methyl)-2-(piperidin-1-yl)benzamide]	29900
Nc1ncnc2c1ncn2Cc1cc(Cl)cc2cc(CNC(=O)c3ccc4nc[nH]c4n3)[nH]c12 [Example 330, N-({7-[(6-amino-9H-purin-9-yl)methyl]-5-chloro-1H-indol-2-yl}methyl)-3H-imidazo[4,5-b]pyridine-5-carboxamide]	1060
Nc1ncnc2c1ncn2Cc1cc(Cl)cc2cc(CNC(=O)Cc3ccccc3F)[nH]c12 [Example 256, N-({7-[(6-amino-9H-purin-9-yl)methyl]-5-chloro-1H-indol-2-yl}methyl)-2-(2-fluorophenyl)acetamide]	> 50000
Nc1ncnc2c1ncn2Cc1cc(Cl)cc2cc(CNC(=O)c3cccnc3)[nH]c12 [Example 196, N-({7-[(6-amino-9H-purin-9-yl)methyl]-5-chloro-1H-indol-2-yl}methyl)pyridine-3-carboxamide]	905
COc1ccc(CC(=O)NCc2cc3cc(Cl)cc(Cn4cnc5c(N)ncnc54)c3[nH]2)cc1 [Example 297, N-({7-[(6-amino-9H-purin-9-yl)methyl]-5-chloro-1H-indol-2-yl}methyl)-2-(4-methoxyphenyl)acetamide]	6040
CC(C)n1nnc2cc(C(=O)NCc3cc4cc(Cl)cc(Cn5cnc6c(N)ncnc65)c4[nH]3)ccc21 [Example 371, N-({7-[(6-amino-9H-purin-9-yl)methyl]-5-chloro-1H-indol-2-yl}methyl)-1-(propan-2-yl)-1H-benzotriazole-5-carboxamide]	21500
Nc1ncnc2c1ncn2Cc1cc(Cl)cc2cc(CNC(=O)c3ccc4[nH]nnc4c3)[nH]c12 [Example 331, N-({7-[(6-amino-9H-purin-9-yl)methyl]-5-chloro-1H-indol-2-yl}methyl)-1H-benzotriazole-6-carboxamide]	2580
Cn1ncc2cc(C(=O)NCc3cc4cc(Cl)cc(Cn5cnc6c(N)ncnc65)c4[nH]3)ccc21 [Example 362, N-({7-[(6-amino-9H-purin-9-yl)methyl]-5-chloro-1H-indol-2-yl}methyl)-1-methyl-1H-indazole-5-carboxamide]	636
CC(C)n1ncc2cc(C(=O)NCc3cc4cc(Cl)cc(Cn5cnc6c(N)ncnc65)c4[nH]3)cnc21 [Example 372, N-({7-[(6-amino-9H-purin-9-yl)methyl]-5-chloro-1H-indol-2-yl}methyl)-1-(propan-2-yl)-1H-pyrazolo[3,4-b]pyridine-5-carboxamide]	970
Nc1ncnc2c1ncn2Cc1cc(Cl)cc2cc(CNC(=O)C3CCC3)[nH]c12 [Example 111, N-({7-[(6-amino-9H-purin-9-yl)methyl]-5-chloro-1H-indol-2-yl}methyl)cyclobutanecarboxamide]	8800
Cn1ccnc1-c1ccccc1C(=O)NCc1cc2cc(Cl)cc(Cn3cnc4c(N)ncnc43)c2[nH]1 [Example 327, N-({7-[(6-amino-9H-purin-9-yl)methyl]-5-chloro-1H-indol-2-yl}methyl)-2-(1-methyl-1H-imidazol-2-yl)benzamide]	5280
Cc1cc2cc(C(=O)NCc3cc4cc(Cl)cc(Cn5cnc6c(N)ncnc65)c4[nH]3)ccc2o1 [Example 364, N-({7-[(6-amino-9H-purin-9-yl)methyl]-5-chloro-1H-indol-2-yl}methyl)-2-methyl-1-benzofuran-5-carboxamide]	3280
Nc1ncnc2c1ncn2Cc1cc(Cl)cc2cc(CNC(=O)c3ccc4scnc4c3)[nH]c12 [Example 336, N-({7-[(6-amino-9H-purin-9-yl)methyl]-5-chloro-1H-indol-2-yl}methyl)-1,3-benzothiazole-5-carboxamide]	431
Cc1nnccc1C(=O)NCc1cc2cc(C3=CCNCC3)cc(Cn3cnc4c(N)ncnc43)c2[nH]1 [Example 200, N-({7-[(6-amino-9H-purin-9-yl)methyl]-5-(1,2,3,6-tetrahydropyridin-4-yl)-1H-indol-2-yl}methyl)-3-methylpyridazine-4-carboxamide]	100
N#Cc1ccc(C(=O)NCc2cc3cc(C4=CCNCC4)cc(Cn4cnc5c(N)ncnc54)c3[nH]2)c(Cl)c1 [Example 277, N-({7-[(6-amino-9H-purin-9-yl)methyl]-5-(1,2,3,6-tetrahydropyridin-4-yl)-1H-indol-2-yl}methyl)-2-chloro-4-cyanobenzamide]	35.1
Cc1n[nH]c2ncc(C(=O)NCc3cc4cc(Cl)cc(Cn5cnc6c(N)ncnc65)c4[nH]3)cc12 [Example 353, N-({7-[(6-amino-9H-purin-9-yl)methyl]-5-chloro-1H-indol-2-yl}methyl)-3-methyl-1H-pyrazolo[3,4-b]pyridine-5-carboxamide]	> 50000
N#Cc1ccc(F)c(CNCc2cc3cc(Cl)cc(Cn4cnc5c(N)ncnc54)c3[nH]2)c1 [Example 270, 3-{[({7-[(6-amino-9H-purin-9-yl)methyl]-5-chloro-1H-indol-2-yl}methyl)amino]methyl}-4-fluorobenzonitrile]	3750
Nc1ncnc2c1ncn2Cc1cc(Cl)cc2cc(CNC(=O)Cc3ccccc3Cl)[nH]c12 [Example 253, N-({7-[(6-amino-9H-purin-9-yl)methyl]-5-chloro-1H-indol-2-yl}methyl)-2-(2-chlorophenyl)acetamide]	36100
Cc1cc(C(=O)NCc2cc3cc(Cl)cc(Cn4cnc5c(N)ncnc54)c3[nH]2)nn1C [Example 182, N-({7-[(6-amino-9H-purin-9-yl)methyl]-5-chloro-1H-indol-2-yl}methyl)-1,5-dimethyl-1H-pyrazole-3-carboxamide]	5200

More lines, now with the values ahead:

IC50 [nM]	Compound
200	NCc1cc2c(C3=CCCC3)ccc(Cn3cnc4c(N)ncnc43)c2[nH]1 [Example 67, 9-{[2-(aminomethyl)-4-(cyclopent-1-en-1-yl)-1H-indol-7-yl]methyl}-9H-purin-6-amine]
4640	N#Cc1cccc(CNCc2cc3cc(Cl)cc(Cn4cnc5c(N)ncnc54)c3[nH]2)c1 [Example 268, 3-{[({7-[(6-amino-9H-purin-9-yl)methyl]-5-chloro-1H-indol-2-yl}methyl)amino]methyl}benzonitrile]
2030	Cc1cccc(CNCc2cc3cc(Cl)cc(Cn4cnc5c(N)ncnc54)c3[nH]2)c1F [Example 245, 9-[(5-chloro-2-{[(2-fluoro-3-methylbenzyl)amino]methyl}-1H-indol-7-yl)methyl]-9H-purin-6-amine]
790	Nc1ncnc2c1ncn2Cc1cc(Cl)cc2cc(CNC(=O)c3c(F)cccc3Cl)[nH]c12 [Example 227, N-({7-[(6-amino-9H-purin-9-yl)methyl]-5-chloro-1H-indol-2-yl}methyl)-2-chloro-6-fluorobenzamide]
3330	Cc1ccccc1-c1cc(Cn2cnc3c(N)ncnc32)c2[nH]c(CN)cc2c1 [Example 32, 9-{[2-(aminomethyl)-5-(2-methylphenyl)-1H-indol-7-yl]methyl}-9H-purin-6-amine]
2640	Cc1ccccc1CNCc1cc2cc(Cl)cc(Cn3cnc4c(N)ncnc43)c2[nH]1 [Example 242, 9-[(5-chloro-2-{[(2-methylbenzyl)amino]methyl}-1H-indol-7-yl)methyl]-9H-purin-6-amine]
1920	Nc1ncnc2c1ncn2Cc1cc(Cl)cc2cc(CNCc3cccc(Cl)c3)[nH]c12 [Example 209, 9-[(5-chloro-2-{[(3-chlorobenzyl)amino]methyl}-1H-indol-7-yl)methyl]-9H-purin-6-amine]
2820	NCc1cc2cccc(Cn3cnc4c(N)ncnc43)c2[nH]1 [Example 8, 9-{[2-(aminomethyl)-1H-indol-7-yl]methyl}-9H-purin-6-amine]
4050	Nc1ncnc2c1ncn2Cc1cc(Cl)cc2cc(CNC(=O)c3ccccc3)[nH]c12 [Example 220, N-({7-[(6-amino-9H-purin-9-yl)methyl]-5-chloro-1H-indol-2-yl}methyl)benzamide]
2840	Nc1ncnc2c1ncn2Cc1cc(Cl)cc2cc(CNCc3ccccc3F)[nH]c12 [Example 214, 9-[(5-chloro-2-{[(2-fluorobenzyl)amino]methyl}-1H-indol-7-yl)methyl]-9H-purin-6-amine]
1000	NCc1cc2c(-c3ccccc3)ccc(Cn3cnc4c(N)ncnc43)c2[nH]1 [Example 70, 9-{[2-(aminomethyl)-4-phenyl-1H-indol-7-yl]methyl}-9H-purin-6-amine]
334	CS(=O)(=O)c1ccc(-c2ccc(Cn3cnc4c(N)ncnc43)c3[nH]c(CN)cc23)cc1 [Example 81, 9-({2-(aminomethyl)-4-[4-(methylsulfonyl)phenyl]-1H-indol-7-yl}methyl)-9H-purin-6-amine]
2040	Nc1ncnc2c1ncn2Cc1cc(Cl)cc2cc(CNC(=O)c3ccns3)[nH]c12 [Example 137, N-({7-[(6-amino-9H-purin-9-yl)methyl]-5-chloro-1H-indol-2-yl}methyl)-1,2-thiazole-5-carboxamide]
3130	Nc1ncnc2c1ncn2Cc1cc(Cl)cc2cc(CNCc3c(F)cccc3F)[nH]c12 [Example 219, 9-[(5-chloro-2-{[(2,6-difluorobenzyl)amino]methyl}-1H-indol-7-yl)methyl]-9H-purin-6-amine]
890	Cc1ccc(-c2ccc(Cn3cnc4c(N)ncnc43)c3[nH]c(CN)cc23)cc1 [Example 75, 9-{[2-(aminomethyl)-4-(4-methylphenyl)-1H-indol-7-yl]methyl}-9H-purin-6-amine]
